Reference: publication PMC6030159 (Scientific Reports, 2018)
Entries after “also recorded” stand apart in the source; their conditions may differ.

Key:
MYC/MYCN target genes = test: RT-qPCR of MYC/MYCN target genes in Kelly cells; type: cell-based; conditions: 2.5 μM, 24 hours
Procedure: These assays were performed essentially as described in[67],[68]. For further information on immunohistochemistry, and on primers and antibodies, see Supplementary Information.

[1] = system: T1, bovine serum albumin (BSA); test: MST binding to BSA; conditions: BSA titrated
T1 construct: purchased NanoTemper (included in the MST kit)
Text: Data are shown as mean ± standard deviation of 5 biological repeats.

MAX bHLHZip = MAX bHLHZip (Homo sapiens, UniProt P61244); test: MST direct binding to MAX; conditions: 3 μM MYCMI-6, MAX titrated
Procedure: (§1) To determine whether MYCMI-6 binds directly to MYC (or MAX), MST and SPR were applied. The bHLHZip domains of MYC or MAX, respectively (Suppl. Fig. S1C), were titrated and mixed with 3 μM of MYCMI-6.
(§2) MST was carried out on a Monolith NT.115 with blue/green filters, kindly provided by Luca Jovine, Karolinska Institutet Huddinge, according to manufacturer’s protocol (NanoTemper). MYCbHLHZip, MAXbHLHZip, BSA and BCL-XL recombinant proteins and compounds were diluted and titrated in PBS supplemented with 0.05% Triton-X-114 or 0.05% Tween-20. Titration of molecules was carried out in 16 PCR tubes into which a fixed concentration of fluorescent molecule was added. The mixture was applied to capillaries (standard treated, NanoTemper), and scanned in the Monolith NT.115 to measure initial fluorescence of molecule. MST was induced and fluorescence was measured during 40 seconds. Double measurements were carried out (MST power of 20% and 40%, or 40% and 60%) for each sample. Delta fluorescence or relative fluorescence of fluorescent molecule normalized to control vehicle was plotted against titrated molecule concentration. The protein labeling kit GREEN-NHS (NanoTemper) was used to label primary amines of proteins according to manufacture’s protocol.

MYCN:MAX interaction = system: T2, MYCN:MAX interaction; test: isPLA endogenous MYCN:MAX in SK-N-BE(2) cells; type: cell-based; conditions: 2.5 μM, 16 hours
T2 construct: endogenous in cells; host or cells: SK-N-BE(2)
Procedure: The isPLA assay has been described. Antibodies used are listed in Supplementary Information. Briefly, cells were grown on collagen-coated chamber slides (Falcon), and treated with 1–10 μM of compounds, respectively, for 16 hours, then washed twice with PBS and fixed in ice cold methanol for 5–15 min at room temperature. Slides were washed in PBS with 0.05% Tween 20 and incubated in blocking buffer after which isPLA was performed using the Duolink® in situ PLA kit (Sigma-Aldrich) according to the manufacturer’s protocol. DNA was stained with DAPI. Incubation with primary antibodies were performed at +4 °C overnight. Images were taken using an Axiovert 200M inverted microscope (Zeiss) and fluorescent dots were quantified using semi-automated analysis in ImageJ (http://imagej.net) and averaged to number of dots per cell.

BSA = system: T3, BSA; test: SPR binding to BSA; set-up: species or system bovine
T3 construct: purchased NanoTemper (included in the MST kit)
Procedure: The MYC SPR assay was carried out as described above with MYCbHLHZip immobilized to a level of 800–1000 RU. For kinetic binding experiments, a Langmuir 1:1 binding event was applied using the Biacore T200 Evaluation Software 2.0 (GE Healthcare) to determine association (ka) and dissociation (kd) constants of the compound and to calculate affinity (KD) by the formula; KD = kd/ka. Binding responses from equilibrium binding experiments were plotted against compound concentration and KD values were determined at 50% of the theoretical Rmax with the formula Rmax = (MW analyte/MW ligand) × immobilized ligand level on the chip (RU) × stoichiometry (1:1). Same coupling method described above was used to immobilize the control proteins. MAX was immobilized to approximately 2000 RU, MAD to 600 RU, BSA to 1000 RU, p53 to 3000 RU and BCL-XL, to 500 RU.

[2] = system: SK-N-DZ MYCN-amplified neuroblastoma xenograft tumors; test: SK-N-DZ neuroblastoma xenograft tumor model; type: in vivo, mouse; conditions: 20 mg/kg i.p. daily, 1–2 weeks, vs vehicle
Procedure: The last dose was administered 3 hrs before termination. […]
Immunohistochemistry. Apoptosis was visualized at the single-cell level on tumor cryosections using the TUNEL method using the In Situ Cell Death Detection Fluorescein-Roche kit and analyzed by fluorescence microscopy. Briefly, tumor cryosections were fixed in 4% paraformaldyde (PFA) and the assay was performed following the instructions from the manufacturer. Negative controls were run using the reagent without the TdT enzyme. Samples were mounted using Vectashield mounting medium (Vector) and DAPI was used as nuclear counterstaining. Cell proliferation and microvascular density (MVD) were evaluated through Ki67 and CD31staining, respectively, on tumor cryosections and detected by immunofluoresence. Visualization and image acquisition was done in a Zeiss microscope, and for panoramic views by a Vectra imaging system. For quantification, areas with positive TUNEL and Ki67 staining were measured using Image J software. For the analysis of MVD, the number of vessel structures per microscopic field was calculated.

[3] = system: TGR-1 (wt) Rat1 fibroblasts; test: WST-1 growth assay, TGR-1 (wt) Rat1 fibroblasts; type: cell-based, rat
Procedure: Cell proliferation assays. Cell growth and viability was estimated in triplicates with WST-1
(Roche) or Resazurin sodium salt (Sigma-Aldrich) assays in medium at 37°C and 5% CO 2 for
2 hours after which absorbance or fluorescence, respectively, was measured with an Omega
Fluostar (BMG Labtech) in a 96 well plate format. […]
0.7% agarose. […]

MYC bHLHZip = target: T4, MYC bHLHZip (Homo sapiens, UniProt P01106); test: MST direct binding to MYC
T4 construct: 6xHis (N); made in house; host or cells: E. coli BL21 (DE3), pET28a; purified in denaturing conditions
Procedure: as §1, §2

MYC:MAX = system: T5, MYC:MAX; test: Gaussia luciferase complementation (GLuc) MYC:MAX; type: cell-based, human; conditions: 25 μM, 17 hours, HEK293 cells
T5 construct: fused to full length MYC (MYC-GLuc-C) and MAX (MAX-GLuc-N), respectively; expressed in transfected cells; host or cells: HEK293
Procedure: The protein fragment complementation assay using the Gaussia luciferase has been described. 0.2–0.4 μg of each GLuc-construct (see Supplementary Information) together with 0.05–0.2 μg pCMV-Luc (Firefly luciferase) were transiently transfected into HEK293 or COS-7 cells in 6-well plates. 24 hours later cells were treated with compound (10–25 μM) or DMSO. After another 17 hours, the cells were harvested and lyzed in passive lysis buffer (Promega) supplemented with complete protease inhibitor (Roche). After 60 min incubation at room temperature 20 μM D-luciferin was added (substrate of Firefly luciferase) and luminescence was measured in a Lumat LB9501 (Berthold) or OmegaFluostar (BMG Labtech) luminometer. Directly after, Gaussia luciferase substrate Coelenterazine (Promega) was added to a final concentration of 20 μM in a mixture with “Stop n’ Glow” (Promega) and the luciferase activity was measured. The ratio between Gaussia and Firefly luciferase values were calculated and normalized to DMSO-treated control cells.

T4 sequence (P01106 367-447 limits assumed): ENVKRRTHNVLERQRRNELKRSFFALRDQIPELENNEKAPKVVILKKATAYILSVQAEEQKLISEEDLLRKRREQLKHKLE
MAX bHLHZip, sequence (P61244 23-102 limits assumed): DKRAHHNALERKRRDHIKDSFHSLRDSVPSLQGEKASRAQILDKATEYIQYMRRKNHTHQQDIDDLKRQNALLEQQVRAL

CCOc1ccc2nc3cc(/N=N/c4ccc(N)nc4N)ccc3c(N)c2c1 [MYCMI-6]
expression of MYC/MYCN target genes (MYC/MYCN target genes): significantly inhibited | binding to BSA (MST) [1]: did not bind | binding to MAX bHLHZip (MST) (MAX bHLHZip): no obvious changes; also recorded: did not bind to MAX | MYCN:MAX interaction (isPLA) (MYCN:MAX interaction): significantly inhibited | binding to BSA (SPR) (BSA): negligible | apoptotic areas in tumors (TUNEL) [2]: dramatic increase | microvascular density (CD31) [2]: significantly reduced | non-proliferative areas (Ki67) [2]: significant increase | tumor histology (H&E) [2]: signs of necrosis and hemorrhage | growth of wt (TGR-1) cells [3]: strongly inhibited growth | binding to MYC bHLHZip (MST) (MYC bHLHZip; 3 μM MYCMI-6, changes at 1–15 μM of MYC): binding of MYCMI-6 to MYC | concentration showing relative changes in thermophoresis of labeled MYC (reverse MST) (MYC bHLHZip; labeled MYC approximately 200 nM, MYCMI-6 titrated): above 100 nM | MYC:MAX GLuc activity (MYC:MAX): most potent
